Measured values from ChEMBL document CHEMBL4138123, “Design, synthesis and biological evaluation of novel pyrazolochalcones as potential modulators of PI3K/Akt/mTOR pathway and inducers of apoptosis in breast cancer cells” (Eur J Med Chem, 2017).

How the values were obtained:
Format in all cases: functional
NCI-H226 = test: Cytotoxicity against human NCI-H226 cells assessed as cell growth at 100 uM after 48 hrs by sulforhodamine B assay relative to control; settings: NCI-H226, 48 h, read-out: Activity
SK-MEL-28 [1] = test: Cytotoxicity against human SK-MEL-28 cells assessed as cell growth at 100 uM after 48 hrs by sulforhodamine B assay relative to control; settings: SK-MEL-28, 48 h, read-out: Activity
RXF 393 = test: Cytotoxicity against human RXF393 cells assessed as cell growth at 0.1 uM after 48 hrs by sulforhodamine B assay relative to control; settings: RXF 393, 48 h, read-out: Activity
MDA-MB-468 [2] = test: Cytotoxicity against human MDA-MB-468 cells assessed as cell growth at 1 uM after 48 hrs by sulforhodamine B assay relative to control; settings: MDA-MB-468, 48 h, read-out: Activity
OVCAR-4 = test: Cytotoxicity against human OVCAR4 cells assessed as cell growth at 0.01 uM after 48 hrs by sulforhodamine B assay relative to control; settings: OVCAR-4, 48 h, read-out: Activity
COLO 205 = test: Cytotoxicity against human COLO205 cells assessed as cell growth at 0.1 uM after 48 hrs by sulforhodamine B assay relative to control; settings: COLO 205, 48 h, read-out: Activity
U-251 = test: Cytotoxicity against human U251 cells assessed as cell growth at 100 uM after 48 hrs by sulforhodamine B assay relative to control; settings: U-251, 48 h, read-out: Activity
SK-MEL-28 [3] = test: Cytotoxicity against human SK-MEL-28 cells assessed as cell growth at 0.1 uM after 48 hrs by sulforhodamine B assay relative to control; settings: SK-MEL-28, 48 h, read-out: Activity
OVCAR-8 = test: Cytotoxicity against human OVCAR8 cells assessed as growth inhibition after 48 hrs by sulforhodamine B assay; settings: OVCAR-8, 48 h
TK-10 = test: Cytotoxicity against human TK10 cells assessed as growth inhibition after 48 hrs by sulforhodamine B assay; settings: TK-10, 48 h
SK-MEL-28 [4] = test: Cytotoxicity against human SK-MEL-28 cells assessed as growth inhibition after 48 hrs by sulforhodamine B assay; settings: SK-MEL-28, 48 h
SF-539 = test: Cytotoxicity against human SF539 cells assessed as cell growth at 10 uM after 48 hrs by sulforhodamine B assay relative to control; settings: SF-539, 48 h, read-out: Activity
ACHN [5] = test: Cytotoxicity against human ACHN cells assessed as cell growth at 0.01 uM after 48 hrs by sulforhodamine B assay relative to control; settings: read-out: Activity
SR [6] = test: Cytotoxicity against human SR cells assessed as cell growth at 100 uM after 48 hrs by sulforhodamine B assay relative to control; settings: read-out: Activity
A549 = test: Cytotoxicity against human A549/ATCC cells assessed as cell growth at 10 uM after 48 hrs by sulforhodamine B assay relative to control; settings: A549, 48 h, read-out: Activity
ACHN [7] = test: Cytotoxicity against human ACHN cells assessed as growth inhibition after 48 hrs by sulforhodamine B assay
NCI-H322M = test: Cytotoxicity against human NCI-H322M cells assessed as cell growth at 100 uM after 48 hrs by sulforhodamine B assay relative to control; settings: read-out: Activity
HCT-116 = test: Cytotoxicity against human HCT116 cells assessed as cell growth at 10 uM after 48 hrs by sulforhodamine B assay relative to control; settings: HCT-116, 48 h, read-out: Activity
KM12 = test: Cytotoxicity against human KM12 cells assessed as cell growth at 1 uM after 48 hrs by sulforhodamine B assay relative to control; settings: KM12, 48 h, read-out: Activity
NCI-H460 = test: Cytotoxicity against human NCI-H460 cells assessed as cell growth at 100 uM after 48 hrs by sulforhodamine B assay relative to control; settings: NCI-H460, 48 h, read-out: Activity
SR [8] = test: Cytotoxicity against human SR cells assessed as cell growth at 1 uM after 48 hrs by sulforhodamine B assay relative to control; settings: read-out: Activity
RPMI-8226 = test: Cytotoxicity against human RPMI8226 cells assessed as cell growth at 100 uM after 48 hrs by sulforhodamine B assay relative to control; settings: RPMI-8226, 48 h, read-out: Activity
NCI/ADR-RES = test: Cytotoxicity against human NCI/ADR-RES cells assessed as cell growth at 1 uM after 48 hrs by sulforhodamine B assay relative to control; settings: read-out: Activity
HL-60(TB) = test: Cytotoxicity against human HL-60(TB) cells assessed as cell growth at 100 uM after 48 hrs by sulforhodamine B assay relative to control; settings: HL-60, 48 h, read-out: Activity
Malme-3M [9] = test: Cytotoxicity against human MALME-3M cells assessed as cell growth at 0.01 uM after 48 hrs by sulforhodamine B assay relative to control; settings: read-out: Activity
SK-MEL-28 [10] = test: Cytotoxicity against human SK-MEL-28 cells assessed as cell growth at 0.01 uM after 48 hrs by sulforhodamine B assay relative to control; settings: SK-MEL-28, 48 h, read-out: Activity
MDA-MB-468 [11] = test: Cytotoxicity against human MDA-MB-468 cells assessed as growth inhibition after 48 hrs by sulforhodamine B assay; settings: MDA-MB-468, 48 h
SW-620 = test: Cytotoxicity against human SW620 cells assessed as cell growth at 100 uM after 48 hrs by sulforhodamine B assay relative to control; settings: SW-620, 48 h, read-out: Activity
Malme-3M [12] = test: Cytotoxicity against human MALME-3M cells assessed as cell growth at 100 uM after 48 hrs by sulforhodamine B assay relative to control; settings: read-out: Activity
SN12C = test: Cytotoxicity against human SN12C cells assessed as cell growth at 100 uM after 48 hrs by sulforhodamine B assay relative to control; settings: read-out: Activity
OVCAR-5 = test: Cytotoxicity against human OVCAR5 cells assessed as cell growth at 100 uM after 48 hrs by sulforhodamine B assay relative to control; settings: OVCAR-5, 48 h, read-out: Activity
BT-549 = test: Cytotoxicity against human BT549 cells assessed as cell growth at 10 uM after 48 hrs by sulforhodamine B assay relative to control; settings: BT-549, 48 h, read-out: Activity
OVCAR-3 = test: Cytotoxicity against human OVCAR3 cells assessed as cell growth at 0.01 uM after 48 hrs by sulforhodamine B assay relative to control; settings: OVCAR-3, 48 h, read-out: Activity
ACHN [13] = test: Cytotoxicity against human ACHN cells assessed as cell growth at 100 uM after 48 hrs by sulforhodamine B assay relative to control; settings: read-out: Activity
MDA-MB-468 [14] = test: Cytotoxicity against human MDA-MB-468 cells assessed as cell growth at 0.01 uM after 48 hrs by sulforhodamine B assay relative to control; settings: MDA-MB-468, 48 h, read-out: Activity
MOLT-4 = test: Cytotoxicity against human MOLT4 cells assessed as cell growth at 100 uM after 48 hrs by sulforhodamine B assay relative to control; settings: MOLT-4, 48 h, read-out: Activity

With COc1cc(C(=O)/C=C/c2cc(-c3ccc4c(c3)OCO4)n[nH]2)cc(OC)c1OC the growth at 100 µM (NCI-H226) was -46%, the growth at 100 µM (SK-MEL-28 [1]) was -96% and the growth at 0.1 µM (RXF 393) was 83%. For the same compound, the growth at 1 µM (MDA-MB-468 [2]) was 68%, the growth at 0.01 µM (OVCAR-4) was 97% and the growth at 0.1 µM (COLO 205) was 98%. The growth at 100 µM (U-251) was -98%, the growth at 0.1 µM (SK-MEL-28 [3]) was 99% and the GI50 (OVCAR-8) was 2.35 µM. The LC50 (OVCAR-8) was 24.8 µM, the TGI (OVCAR-8) was 6.37 µM and the GI50 (TK-10) was 2.9 µM. The LC50 (TK-10) was 25.6 µM, the TGI (TK-10) was 7.17 µM and the GI50 (SK-MEL-28 [4]) was 1.92 µM. The LC50 (SK-MEL-28 [4]) was 9.13 µM, the TGI (SK-MEL-28 [4]) was 4.18 µM and the growth at 10 µM (SF-539) was -75%. For the same compound, the growth at 0.01 µM (ACHN [5]) was 102%, the growth at 100 µM (SR [6]) was -17% and the growth at 10 µM (A549) was -22%. For the same compound, the GI50 (ACHN [7]) was 2.2 µM, the LC50 (ACHN [7]) was 18.8 µM and the TGI (ACHN [7]) was 4.95 µM. For the same compound, the growth at 100 µM (NCI-H322M) was -95%, the growth at 10 µM (HCT-116) was -43% and the growth at 1 µM (KM12) was 93%. The growth at 100 µM (NCI-H460) was -78%, the growth at 1 µM (SR [8]) was 56% and the growth at 100 µM (RPMI-8226) was -47%. For the same compound, the growth at 1 µM (NCI/ADR-RES) was 94%, the growth at 100 µM (HL-60(TB)) was -31% and the growth at 0.01 µM (Malme-3M [9]) was 94%. It also gave a growth at 0.01 µM (SK-MEL-28 [10]) of 100%, a GI50 (MDA-MB-468 [11]) of 1.4 µM and an LC50 (MDA-MB-468 [11]) of 8.78 µM. The TGI (MDA-MB-468 [11]) was 3.5 µM, the growth at 100 µM (SW-620) was -65% and the growth at 100 µM (Malme-3M [12]) was -91%. For the same compound, the growth at 100 µM (SN12C) was -96%, the growth at 100 µM (OVCAR-5) was -56% and the growth at 10 µM (BT-549) was -38%. It also gave a growth at 0.01 µM (OVCAR-3) of 98%, a growth at 100 µM (ACHN [13]) of -68% and a growth at 0.01 µM (MDA-MB-468 [14]) of 89%. The growth at 100 µM (MOLT-4) was -13%.

COc1ccc(C(=O)/C=C/c2cc(-c3cc(OC)c(OC)c(OC)c3)n[nH]2)cc1 was tested, and the growth at 100 µM (NCI-H226) was -35%, the growth at 100 µM (SK-MEL-28 [1]) was -87% and the growth at 0.1 µM (RXF 393) was 90%. It also gave a growth at 1 µM (MDA-MB-468 [2]) of 68%, a growth at 0.01 µM (OVCAR-4) of 91% and a growth at 0.1 µM (COLO 205) of 101%. It also gave a growth at 100 µM (U-251) of -25%, a growth at 0.1 µM (SK-MEL-28 [3]) of 104% and an LC50 (OVCAR-8) of over 100 µM. It also gave a TGI (OVCAR-8) of 8.26 µM, an LC50 (TK-10) of over 100 µM and a TGI (TK-10) of 5.77 µM. It also gave an LC50 (SK-MEL-28 [4]) of 9.23 µM, a TGI (SK-MEL-28 [4]) of 4.42 µM and a growth at 10 µM (SF-539) of -92%. It also gave a growth at 0.01 µM (ACHN [5]) of 102%, a growth at 100 µM (SR [6]) of -5% and a growth at 10 µM (A549) of -15%. The LC50 (ACHN [7]) was 6.71 µM, the TGI (ACHN [7]) was 3.63 µM and the growth at 100 µM (NCI-H322M) was -31%. The growth at 10 µM (HCT-116) was -22%, the growth at 1 µM (KM12) was 83% and the growth at 100 µM (NCI-H460) was -62%. For the same compound, the growth at 1 µM (SR [8]) was 22%, the growth at 100 µM (RPMI-8226) was -34% and the growth at 1 µM (NCI/ADR-RES) was 90%. For the same compound, the growth at 100 µM (HL-60(TB)) was -31%, the growth at 0.01 µM (Malme-3M [9]) was 95% and the growth at 0.01 µM (SK-MEL-28 [10]) was 105%. It also gave a GI50 (MDA-MB-468 [11]) of 1.29 µM, an LC50 (MDA-MB-468 [11]) of 5.45 µM and a TGI (MDA-MB-468 [11]) of 2.65 µM. It also gave a growth at 100 µM (SW-620) of -39%, a growth at 100 µM (Malme-3M [12]) of -2% and a growth at 100 µM (SN12C) of 7%. For the same compound, the growth at 100 µM (OVCAR-5) was -59%, the growth at 10 µM (BT-549) was -65% and the growth at 0.01 µM (OVCAR-3) was 101%. The growth at 100 µM (ACHN [13]) was -93%, the growth at 0.01 µM (MDA-MB-468 [14]) was 89% and the growth at 100 µM (MOLT-4) was -4%.
